Laboratory results from PubChem BioAssay AID2060618 (Molecular Pharmacology Branch, DTP, NCI, 2025).

Tested on: 454973-116-R2-J3-PDC spheroids, percent test/control viability
Assay: Anticancer human tumor 454973-116-R2-J3-PDC patient-derived pancreatic carcinoma cell line growth inhibition [CLK]
Details: spheroids with HUVEC and MSC; for IC50: curve of first compound; for viability, T/C: stronger effect = lower value
In short: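 Multi-cell-type spheroids combined patient-derived tumor cells with HUVEC endothelial cells and human mesenchymal stem cells. Paired agents were dosed in half-log steps down from about clinical Cmax, or from 10 microM where Cmax was unknown.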

[1] = second compound 0.0316 µM, first compound 0.00316 µM
[2] = second compound 0.0316 µM, first compound 0.01 µM
[3] = second compound 0.0316 µM, first compound 0.0316 µM
[4] = second compound 0.0316 µM, first compound 0.1 µM
[5] = second compound 0.1 µM, first compound 0.00316 µM
[6] = second compound 0.1 µM, first compound 0.01 µM
[7] = second compound 0.1 µM, first compound 0.0316 µM
[8] = second compound 0.1 µM, first compound 0.1 µM
[9] = second compound 0.316 µM, first compound 0.00316 µM
[10] = second compound 0.316 µM, first compound 0.01 µM
[11] = second compound 0.316 µM, first compound 0.0316 µM
[12] = second compound 0.316 µM, first compound 0.1 µM
[13] = second compound 1 µM, first compound 0.00316 µM
[14] = second compound 1 µM, first compound 0.01 µM
[15] = second compound 1 µM, first compound 0.0316 µM
[16] = second compound 1 µM, first compound 0.1 µM
[17] = second compound 3.16 µM, first compound 0.00316 µM
[18] = second compound 3.16 µM, first compound 0.01 µM
[19] = second compound 3.16 µM, first compound 0.0316 µM
[20] = second compound 3.16 µM, first compound 0.1 µM
[21] = second compound 10 µM, first compound 0.00316 µM
[22] = second compound 10 µM, first compound 0.01 µM
[23] = second compound 10 µM, first compound 0.0316 µM
[24] = second compound 10 µM, first compound 0.1 µM
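Also: spheroids exposed to compounds for 7 days before readout.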

CCc1c2c(nc3ccc(O)cc13)-c1cc3c(c(=O)n1C2)COC(=O)[C@]3(O)CC + CNC(=O)c1ccc(Nc2nc(OC3CCCC3)c3c(-c4ccc5nc(C)oc5c4)c[nH]c3n2)c(OC)c1 was tested, and the IC50 (second compound 0.0316 µM) was < 3.16 nM, the IC50 (second compound 0.1 µM) was < 3.16 nM and the IC50 (second compound 0.316 µM) was < 3.16 nM. For the same molecule, the IC50 (second compound 1 µM) was < 3.16 nM, the IC50 (second compound 3.16 µM) was < 3.16 nM and the IC50 (second compound 10 µM) was < 3.16 nM. It also gave a viability, T/C [1] of 27.4%, a viability, T/C [2] of 16.7% and a viability, T/C [3] of 12.8%. For the same molecule, the viability, T/C [4] was 5.45%, the viability, T/C (second compound 0.0316 µM, first compound 0.316 µM) was 4.91% and the viability, T/C (second compound 0.0316 µM, first compound 1 µM) was 1.19%. For the same molecule, the viability, T/C [5] was 21.7%, the viability, T/C [6] was 18.1% and the viability, T/C [7] was 13.6%. For the same molecule, the viability, T/C [8] was 9.68%, the viability, T/C (second compound 0.1 µM, first compound 0.316 µM) was 3.81% and the viability, T/C (second compound 0.1 µM, first compound 1 µM) was 1.47%. It also gave a viability, T/C [9] of 20.4%, a viability, T/C [10] of 17.1% and a viability, T/C [11] of 10.5%. It also gave a viability, T/C [12] of 6.75%, a viability, T/C (second compound 0.316 µM, first compound 0.316 µM) of 2.62% and a viability, T/C (second compound 0.316 µM, first compound 1 µM) of 1.9%. For the same molecule, the viability, T/C [13] was 24%, the viability, T/C [14] was 17.2% and the viability, T/C [15] was 6.96%. For the same molecule, the viability, T/C [16] was 2.96%, the viability, T/C (second compound 1 µM, first compound 0.316 µM) was 2.33% and the viability, T/C (second compound 1 µM, first compound 1 µM) was 1.14%. It also gave a viability, T/C [17] of 24.5%, a viability, T/C [18] of 16.7% and a viability, T/C [19] of 7.28%. For the same molecule, the viability, T/C [20] was 4.75%, the viability, T/C (second compound 3.16 µM, first compound 0.316 µM) was 2.45% and the viability, T/C (second compound 3.16 µM, first compound 1 µM) was 0.84%. For the same molecule, the viability, T/C [21] was 22.6%, the viability, T/C [22] was 15.3% and the viability, T/C [23] was 4.85%. For the same molecule, the viability, T/C [24] was 5.04%, the viability, T/C (second compound 10 µM, first compound 0.316 µM) was 3.11% and the viability, T/C (second compound 10 µM, first compound 1 µM) was 0.6%.
For Cn1ncnc1[C@H]1c2n[nH]c(=O)c3cc(F)cc(c23)N[C@@H]1c1ccc(F)cc1 + CNC(=O)c1ccc(Nc2nc(OC3CCCC3)c3c(-c4ccc5nc(C)oc5c4)c[nH]c3n2)c(OC)c1, the IC50 (second compound 0.0316 µM) was > 100 nM, the IC50 (second compound 0.1 µM) was > 100 nM and the IC50 (second compound 0.316 µM) was < 0.316 nM. For the same molecule, the IC50 (second compound 1 µM) was < 0.316 nM, the IC50 (second compound 3.16 µM) was < 0.316 nM and the IC50 (second compound 10 µM) was < 0.316 nM. For the same molecule, the viability, T/C (second compound 0.0316 µM, first compound 0.000316 µM) was 110%, the viability, T/C (second compound 0.0316 µM, first compound 0.001 µM) was 114% and the viability, T/C [1] was 110%. It also gave a viability, T/C [2] of 119%, a viability, T/C [3] of 105% and a viability, T/C [4] of 86.2%. It also gave a viability, T/C (second compound 0.1 µM, first compound 0.000316 µM) of 113%, a viability, T/C (second compound 0.1 µM, first compound 0.001 µM) of 104% and a viability, T/C [5] of 104%. It also gave a viability, T/C [6] of 106%, a viability, T/C [7] of 104% and a viability, T/C [8] of 86.4%. For the same molecule, the viability, T/C (second compound 0.316 µM, first compound 0.000316 µM) was 43.1%, the viability, T/C (second compound 0.316 µM, first compound 0.001 µM) was 51.2% and the viability, T/C [9] was 50.8%. For the same molecule, the viability, T/C [10] was 52.2%, the viability, T/C [11] was 52.2% and the viability, T/C [12] was 48.1%. It also gave a viability, T/C (second compound 1 µM, first compound 0.000316 µM) of 33.1%, a viability, T/C (second compound 1 µM, first compound 0.001 µM) of 31.5% and a viability, T/C [13] of 27.8%. For the same molecule, the viability, T/C [14] was 36.4%, the viability, T/C [15] was 31.1% and the viability, T/C [16] was 23.5%. It also gave a viability, T/C (second compound 3.16 µM, first compound 0.000316 µM) of 29.2%, a viability, T/C (second compound 3.16 µM, first compound 0.001 µM) of 26.7% and a viability, T/C [17] of 29%. The viability, T/C [18] was 25.7%, the viability, T/C [19] was 23.9% and the viability, T/C [20] was 21.4%. The viability, T/C (second compound 10 µM, first compound 0.000316 µM) was 25.5%, the viability, T/C (second compound 10 µM, first compound 0.001 µM) was 27.6% and the viability, T/C [21] was 25.8%. It also gave a viability, T/C [22] of 21.7%, a viability, T/C [23] of 24.5% and a viability, T/C [24] of 19.6%.
